In ChEMBL document CHEMBL3885881, “DrugMatrix”:

Organism: Rattus norvegicus
Assay: DrugMatrix - Regimen: Daily Repeat
Type: toxicity, organism-based, Sprague-Dawley
Set-up: regimen Daily Repeat, gender Male, age 6-8 weeks
Conditions: in vivo, po, route oral GAVAGE, vehicle 100 % WATER; for ABSOLUTE BASOPHIL / ABSOLUTE EOSINOPHIL / ABSOLUTE LYMPHOCYTE / ABSOLUTE MONOCYTE / ABSOLUTE SEGMENTED NEUTROPHIL / BASOPHIL / EOSINOPHIL / ERYTHROCYTE COUNT / HEMATOCRIT / HEMOGLOBIN / LEUKOCYTE COUNT / LYMPHOCYTE / MEAN CORPUSCULAR HEMOGLOBIN / MEAN CORPUSCULAR HEMOGLOBIN CONCENTRATION / MEAN CORPUSCULAR VOLUME / MONOCYTE / NEUTROPHIL / NUCLEATED RED BLOOD CELLS / PLATELET COUNT: tissue Blood; for ALANINE AMINOTRANSFERASE / ALBUMIN / ALKALINE PHOSPHATASE / ASPARTATE AMINOTRANSFERASE / BLOOD UREA NITROGEN / CARBON DIOXIDE / CHLORIDE / CHOLESTEROL / CREATINE PHOSPHOKINASE / CREATININE / GLUCOSE / LACTATE DEHYDROGENASE / LIPASE / PHOSPHORUS / POTASSIUM / SODIUM / TOTAL BILIRUBIN / TOTAL PROTEIN / URIC ACID: tissue Plasma
[1] = 0 mg/kg, 72 h, dose level Control, time 3 day
[2] = 0 mg/kg, 120 h, dose level Control, time 5 day
[3] = 3525 mg/kg, 72 h, dose level High, time 3 day
[4] = 3525 mg/kg, 120 h, dose level High, time 5 day

With `OCCO` [ETHYLENE GLYCOL] the “ABSOLUTE BASOPHIL” value [1] was 0 CELLS/uL, the “ABSOLUTE EOSINOPHIL” value [1] was 0 CELLS/uL and the “ABSOLUTE LYMPHOCYTE” value [1] was 7802.17 CELLS/uL. For the same compound, the “ABSOLUTE MONOCYTE” value [1] was 13.5 CELLS/uL, the “ABSOLUTE SEGMENTED NEUTROPHIL” value [1] was 617.67 CELLS/uL and the BASOPHIL [1] was 0%. For the same compound, the EOSINOPHIL [1] was 0%, the “ERYTHROCYTE COUNT” value [1] was 5.35 x10E6/uL and the HEMATOCRIT [1] was 33.02%. For the same compound, the HEMOGLOBIN [1] was 12.88 G/DL, the “LEUKOCYTE COUNT” value [1] was 8.43 x10E3/uL and the LYMPHOCYTE [1] was 92.67%. The “MEAN CORPUSCULAR HEMOGLOBIN” value [1] was 24.12 pg, the “MEAN CORPUSCULAR HEMOGLOBIN CONCENTRATION” value [1] was 39.03 G/DL and the “MEAN CORPUSCULAR VOLUME” value [1] was 61.8 fL. The MONOCYTE [1] was 0.17%, the NEUTROPHIL [1] was 7.17% and the “NUCLEATED RED BLOOD CELLS” value [1] was 0 /100WBC. For the same compound, the “PLATELET COUNT” value [1] was 1124.83 x10E3/uL, the “ALANINE AMINOTRANSFERASE” value [1] was 54.17 u/L and the ALBUMIN [1] was 4.07 G/DL. The “ALKALINE PHOSPHATASE” value [1] was 383.83 u/L, the “ASPARTATE AMINOTRANSFERASE” value [1] was 82.17 u/L and the “BLOOD UREA NITROGEN” value [1] was 13.67 mg/dL. The “CARBON DIOXIDE” value [1] was 31 mmol/L, the CHLORIDE [1] was 100.83 MEQ/L and the CHOLESTEROL [1] was 65.17 mg/dL. The “CREATINE PHOSPHOKINASE” value [1] was 228.33 u/L, the CREATININE [1] was 0.12 mg/dL and the GLUCOSE [1] was 148 mg/dL. For the same compound, the “LACTATE DEHYDROGENASE” value [1] was 97.83 u/L, the LIPASE [1] was 9.17 u/L and the PHOSPHORUS [1] was 9.75 mg/dL. The POTASSIUM [1] was 5.85 MEQ/L, the SODIUM [1] was 147.02 MEQ/L and the “TOTAL BILIRUBIN” value [1] was 0.18 mg/dL. For the same compound, the “TOTAL PROTEIN” value [1] was 6.1 G/DL, the “URIC ACID” value [1] was 0.5 mg/dL and the “ABSOLUTE BASOPHIL” value [2] was 0 CELLS/uL. For the same compound, the “ABSOLUTE EOSINOPHIL” value [2] was 0 CELLS/uL, the “ABSOLUTE LYMPHOCYTE” value [2] was 10538 CELLS/uL and the “ABSOLUTE MONOCYTE” value [2] was 15.83 CELLS/uL. For the same compound, the “ABSOLUTE SEGMENTED NEUTROPHIL” value [2] was 762.83 CELLS/uL, the BASOPHIL [2] was 0% and the EOSINOPHIL [2] was 0%. For the same compound, the “ERYTHROCYTE COUNT” value [2] was 5.49 x10E6/uL, the HEMATOCRIT [2] was 34.63% and the HEMOGLOBIN [2] was 13.72 G/DL. For the same compound, the “LEUKOCYTE COUNT” value [2] was 11.32 x10E3/uL, the LYMPHOCYTE [2] was 92.67% and the “MEAN CORPUSCULAR HEMOGLOBIN” value [2] was 24.97 pg. The “MEAN CORPUSCULAR HEMOGLOBIN CONCENTRATION” value [2] was 39.57 G/DL, the “MEAN CORPUSCULAR VOLUME” value [2] was 63.05 fL and the MONOCYTE [2] was 0.17%. The NEUTROPHIL [2] was 7.17%, the “NUCLEATED RED BLOOD CELLS” value [2] was 0.17 /100WBC and the “PLATELET COUNT” value [2] was 802 x10E3/uL. The “ALANINE AMINOTRANSFERASE” value [2] was 50.5 u/L, the ALBUMIN [2] was 4.07 G/DL and the “ALKALINE PHOSPHATASE” value [2] was 336.83 u/L. The “ASPARTATE AMINOTRANSFERASE” value [2] was 81 u/L, the “BLOOD UREA NITROGEN” value [2] was 14.17 mg/dL and the “CARBON DIOXIDE” value [2] was 32 mmol/L. For the same compound, the CHLORIDE [2] was 98.33 MEQ/L, the CHOLESTEROL [2] was 69.17 mg/dL and the “CREATINE PHOSPHOKINASE” value [2] was 253.33 u/L. For the same compound, the CREATININE [2] was 0.13 mg/dL, the GLUCOSE [2] was 153.67 mg/dL and the “LACTATE DEHYDROGENASE” value [2] was 157 u/L. The LIPASE [2] was 9 u/L, the PHOSPHORUS [2] was 10.78 mg/dL and the POTASSIUM [2] was 6.11 MEQ/L. For the same compound, the SODIUM [2] was 144.57 MEQ/L, the “TOTAL BILIRUBIN” value [2] was 0.15 mg/dL and the “TOTAL PROTEIN” value [2] was 6.05 G/DL. The “URIC ACID” value [2] was 0.73 mg/dL, the “ABSOLUTE BASOPHIL” value [3] was 0 CELLS/uL and the “ABSOLUTE EOSINOPHIL” value [3] was 0 CELLS/uL. The “ABSOLUTE LYMPHOCYTE” value [3] was 6464 CELLS/uL, the “ABSOLUTE MONOCYTE” value [3] was 70.67 CELLS/uL and the “ABSOLUTE SEGMENTED NEUTROPHIL” value [3] was 598.67 CELLS/uL. The BASOPHIL [3] was 0%, the EOSINOPHIL [3] was 0% and the “ERYTHROCYTE COUNT” value [3] was 5.57 x10E6/uL. For the same compound, the HEMATOCRIT [3] was 33.43%, the HEMOGLOBIN [3] was 13.07 G/DL and the “LEUKOCYTE COUNT” value [3] was 7.13 x10E3/uL. The LYMPHOCYTE [3] was 90.67%, the “MEAN CORPUSCULAR HEMOGLOBIN” value [3] was 23.5 pg and the “MEAN CORPUSCULAR HEMOGLOBIN CONCENTRATION” value [3] was 39.1 G/DL. For the same compound, the “MEAN CORPUSCULAR VOLUME” value [3] was 60.17 fL, the MONOCYTE [3] was 1% and the NEUTROPHIL [3] was 8.33%. For the same compound, the “NUCLEATED RED BLOOD CELLS” value [3] was 0 /100WBC, the “PLATELET COUNT” value [3] was 918.33 x10E3/uL and the “ALANINE AMINOTRANSFERASE” value [3] was 68 u/L. The ALBUMIN [3] was 3.93 G/DL, the “ALKALINE PHOSPHATASE” value [3] was 332 u/L and the “ASPARTATE AMINOTRANSFERASE” value [3] was 88.33 u/L. The “BLOOD UREA NITROGEN” value [3] was 12.33 mg/dL, the “CARBON DIOXIDE” value [3] was 36 mmol/L and the CHLORIDE [3] was 97.67 MEQ/L. The CHOLESTEROL [3] was 61 mg/dL, the “CREATINE PHOSPHOKINASE” value [3] was 279 u/L and the CREATININE [3] was 0.1 mg/dL. For the same compound, the GLUCOSE [3] was 140 mg/dL, the “LACTATE DEHYDROGENASE” value [3] was 110.33 u/L and the LIPASE [3] was 9 u/L. For the same compound, the PHOSPHORUS [3] was 9 mg/dL, the POTASSIUM [3] was 5.82 MEQ/L and the SODIUM [3] was 143.77 MEQ/L. For the same compound, the “TOTAL BILIRUBIN” value [3] was 0.17 mg/dL, the “TOTAL PROTEIN” value [3] was 5.7 G/DL and the “URIC ACID” value [3] was 0.77 mg/dL. For the same compound, the “ABSOLUTE BASOPHIL” value [4] was 0 CELLS/uL, the “ABSOLUTE EOSINOPHIL” value [4] was 0 CELLS/uL and the “ABSOLUTE LYMPHOCYTE” value [4] was 7667.33 CELLS/uL. For the same compound, the “ABSOLUTE MONOCYTE” value [4] was 0 CELLS/uL, the “ABSOLUTE SEGMENTED NEUTROPHIL” value [4] was 399.33 CELLS/uL and the BASOPHIL [4] was 0%. The EOSINOPHIL [4] was 0%, the “ERYTHROCYTE COUNT” value [4] was 5.77 x10E6/uL and the HEMATOCRIT [4] was 35.47%. The HEMOGLOBIN [4] was 14.17 G/DL, the “LEUKOCYTE COUNT” value [4] was 8.07 x10E3/uL and the LYMPHOCYTE [4] was 95.33%. For the same compound, the “MEAN CORPUSCULAR HEMOGLOBIN” value [4] was 24.53 pg, the “MEAN CORPUSCULAR HEMOGLOBIN CONCENTRATION” value [4] was 39.97 G/DL and the “MEAN CORPUSCULAR VOLUME” value [4] was 61.43 fL. The MONOCYTE [4] was 0%, the NEUTROPHIL [4] was 4.67% and the “NUCLEATED RED BLOOD CELLS” value [4] was 0 /100WBC. The “PLATELET COUNT” value [4] was 1091.67 x10E3/uL, the “ALANINE AMINOTRANSFERASE” value [4] was 54 u/L and the ALBUMIN [4] was 4.1 G/DL. The “ALKALINE PHOSPHATASE” value [4] was 328.33 u/L, the “ASPARTATE AMINOTRANSFERASE” value [4] was 80 u/L and the “BLOOD UREA NITROGEN” value [4] was 14 mg/dL. For the same compound, the “CARBON DIOXIDE” value [4] was 35.67 mmol/L, the CHLORIDE [4] was 96.33 MEQ/L and the CHOLESTEROL [4] was 66 mg/dL. The “CREATINE PHOSPHOKINASE” value [4] was 238.33 u/L, the CREATININE [4] was 0.14 mg/dL and the GLUCOSE [4] was 145 mg/dL. The “LACTATE DEHYDROGENASE” value [4] was 115.67 u/L, the LIPASE [4] was 9.33 u/L and the PHOSPHORUS [4] was 9.87 mg/dL. The POTASSIUM [4] was 6.09 MEQ/L, the SODIUM [4] was 144 MEQ/L and the “TOTAL BILIRUBIN” value [4] was 0.17 mg/dL. The “TOTAL PROTEIN” value [4] was 6.17 G/DL and the “URIC ACID” value [4] was 0.73 mg/dL.
